Here are results for one compound from patent US8809344B2, “Compounds, compositions, and methods for control of hepatitis C viral infections” (priority 2008, dated 2014).

Assay [1] relates to stable genotype 1b (Con1 strain) subgenomic replicon. Put plainly: Log10 decrease in HCV replicon RNA in Clone VI cells, quantitative RT-PCR relative to GAPDH. Type of assay: cell-based, hepatitis C virus. The note with it: 20 μM compound, 72 hours. The procedure: To quantify the effect of compound on HCV RNA replicon levels by measuring HCV replicon RNA levels, the Clone VI cell line, a human hepatoma cell line that contains a stable genotype 1b (Con1 strain) subgenomic replicon with the adaptive Ser1179Ile mutation was used (U.S. Pat. No. 7,049,428). Cells were seeded into 12-well plates (40,000 cells per well) in the absence of Geneticin™ (Invitrogen, Carlsbad, Calif., USA) and treated in triplicate four hours later with 20 μM compound, with a final DMSO percentage of 1% in a total volume of 1 ml. Total RNA was extracted 72 hours later, and HCV and GAPDH RNA levels were quantified via quantitative RT-PCR. The log 10 decrease in HCV RNA levels was quantified relative to GAPDH RNA levels using the comparative Ct (threshold cycle) method (Applied Biosystems, Foster City, Calif., USA).
Additional compounds of formula (I) shown in FIG. 1 were also shown to inhibit HCV RNA replication. The effects of various compounds of formula (I) on HCV RNA replicon levels were determined by measuring HCV replicon RNA levels in cells treated with various concentrations of the compounds. […] Total RNA was extracted 72 hours later, and HCV and GAPDH RNA levels were quantified via quantitative RT-PCR. […]

For assay [2], the system named is chimeric APV112 HCV (genotype 2a with genotype 1b NS4B amino acids 53 to 218). The experiment in a line: HCV APV112 viral infectivity assay in Huh7.5 cells, 3′NTR RNA by realtime quantitative PCR. Type of assay: cell-based, hepatitis C virus. The settings on record: for Log change in 3′NTR copies relative to 1.0% DMSO (GAPDH normalized): 48 hours; for chimeric APV112 viral infectivity: sensitive genotype 1b NS4B region. The procedure: Inhibition of HCV infectivity by AP0080978 and its analogs (AP0080977, non-active enantiomer; AP0089652, racemate; and AP0080935, an aromatic, non-optically active analog of AP0080978) was assayed by exposing cells with infectious chimeric HCV virions in the presence of the compounds. This was accomplished by use of an HCV cell culture system essentially as described in Pietschmann, T. et al. (2006) 103(19): 7408-13, Proc. Natl. Acad. Sci. USA; and elsewhere. Two viral constructs were utilized to characterize inhibition of viral infectivity (FIG. 4). Construct APV23 (FL-J6/JFH) is a full-length, chimeric, genotype 2a HCV genome containing the HCV core through the NS2 first transmembrane domain coding region from the J6 HCV isolate linked to the second NS2 transmembrane domain NS3 through NS5B coding region of HCV strain JFH-1, as shown in FIG. 4 (i.e. an HCV chimera with the “C3 Junction” described in Pietschmann, T. et al. (2006) Proc. Natl. Acad. Sci. USA 103(19): 7408-13; see page 7409 and FIG. 2A of Pietschmann, T. et al.). Construct APV112 was generated by replacing nucleotides encoding amino acids 53 to 218 of the NS4B gene of the APV23 sequence with a corresponding sequence from a genotype 1b (Con1 strain).
Huh7.5 cells were plated at a density of 20,000 cells per well in 96-well plates. The cells were exposed to the chimeric HCV virions at a multiplicity of infection of 0.01. Potential inhibitory compounds were added simultaneously with the chimeric virus. Cells were incubated for 48 hours and then the levels of HCV 3′NTR and GAPDH RNA were quantified by realtime quantitative PCR. Data were analyzed by the comparative Ct method with delta-delta Ct determined relative to 1.0% DMSO. Results in FIGS. 5 and 6 are depicted as log change in 3′NTR copies relative to 1.0% DMSO.

As for `O=C(NCc1cccs1)c1nn2c(c1Cl)N[C@H](c1ccco1)C[C@@H]2C(F)(F)F` (single isomer, unassigned) [Compound 80978], the “Log RNA decrease at [μM]” value in assay [1] is reported as 1.16 @ 20 μM. Besides, in assay [2], the “potency in viral infectivity assays relative to HCV replicon assays” value is recorded as “significantly more potent”. Further, the “greater log change relative to the log change of the 89652 racemate” value in assay [2] (0.02 μM, APV112) came to 5.3 fold. For the same compound, the “Log change in 3′NTR copies relative to 1.0% DMSO (GAPDH normalized)” value is given as −0.79 in assay [2] (0.02 μM, APV112); −1.29 in assay [2] (0.07 μM, APV112); −1.52 in assay [2] (0.22 μM, APV112); −1.67 in assay [2] (0.67 μM, APV112); −1.49 in assay [2] (2 μM, APV112). Also, the “potency relative to control HCV inhibitors 2′CMeA, VX-950, cyclosporin A and a-CD81 antibody (JS81)” value in assay [2] (FIG. 5, APV112) is reported as “significantly more potent”. Besides, the “chimeric APV112 viral infectivity” value in assay [2] (FIG. 5, listed as AP 80978) is on record as “able to inhibit”; in assay [2] (FIG. 5, listed as AP0080978) it was “reduced”.
